Experimental data from patent US20120252741A1, “NOVEL SEMI-SYNTHETIC GLYCOPEPTIDES AS ANTIBACTERIAL AGENTS” (priority 2008, published 2012).
Converted amounts (≈) assume the structure as drawn. Where two headings read alike, the source gives them in different places.

Experiments:
Type in all cases: cell-based
[1] = test system: Staphylococcus epidermidis 831 (MRSE); assay: MIC, broth microdilution, SE 831; details: Staphylococcus epidermidis, read-out: MIC SE 831
Method: (§1) Antibacterial activity in vitro is investigated by broth microdilution method in Meuller-Hinton broth as recommended by NCCLS. All strains tested are clinical isolates either sensitive or resistant to natural glycopeptides. MIC values were determined using the CLSI-recommended broth microdilution procedure (Clinical and Laboratory Standards Institute, Methods for Dilution Antimicrobial Susceptibility Tests for Bacteria That Grow Aerobically; Approved Standard-Seventh Edition.). Automated liquid handlers (Multidrop 384, Labsystems, Helsinki, Finland; Biomek 2000 and Multimek 96, Beckman Coulter, Fullerton Calif.) were used to conduct serial dilutions and liquid transfers. The MIC value for vancomycin is given for comparison. The abbreviations for organisms tested are as follow: SA 100—Staphylococcus aureus 100 (ATCC 29213); SA 757—Staphylococcus aureus 757 (MRSA); SA 2012—Staphylococcus aureus 2012 (VISA); SE 835—Staphylococcus epidermidis 835; SE 831—Staphylococcus epidermidis 831 (MRSE); EFc 101—Enterococcus faecalis 101 (ATCC 29212); EFc 848—Enterococcus faecalis 848 (VRE, Van A); EFcm 800—Enterococcus faecium 800; EFcm 752—Enterococcus faecium 752 (VRE, Van A); SPNE 1195—Streptococcus pneumoniae 1195 (ATCC 49619); SPY 712—Streptococcus pyogenes 712.

[2] = test system: Staphylococcus epidermidis 835; assay: MIC, broth microdilution, SE 835; details: Staphylococcus epidermidis, 835, class symbols, read-out: MIC SE 835
Method: as §1

[3] = test system: Streptococcus pyogenes 712; assay: MIC, broth microdilution, SPY 712; details: Streptococcus pyogenes, 712, class symbols, read-out: MIC S PYO 712
Method: as §1

[4] = test system: Enterococcus faecalis 848 (VRE, Van A); assay: MIC, broth microdilution, EFc 848; details: VRE, Van A, class symbols, read-out: MIC E FC 848
Method: as §1

[5] = test system: Staphylococcus aureus 757 (MRSA); assay: MIC, broth microdilution, SA 757; details: read-out: MIC SA 757
Method: as §1

[6] = test system: Enterococcus faecalis 101 (ATCC 29212); assay: MIC, broth microdilution, EFc 101; details: Enterococcus faecalis, ATCC29212, class symbols, read-out: MIC E FC 101
Method: as §1

[7] = test system: Enterococcus faecium 752 (VRE, Van A); assay: MIC, broth microdilution, EFcm 752; details: VRE, Van A, class symbols, read-out: MIC E FCM 752
Method: as §1

[8] = test system: Staphylococcus aureus 2012 (VISA); assay: MIC, broth microdilution, SA 2012; details: read-out: MIC SA 2012
Method: as §1

[9] = test system: Streptococcus pneumoniae 1195 (ATCC 49619); assay: MIC, broth microdilution, SPNE 1195; details: Streptococcus pneumoniae, ATCC49619, class symbols, read-out: MIC S PNE 1195
Method: as §1

[10] = test system: Staphylococcus aureus 100 (ATCC 29213); assay: MIC, broth microdilution, SA 100; details: Staphylococcus aureus, ATCC29213, class symbols, read-out: MIC SA 100
Method: as §1

[11] = test system: Enterococcus faecium 800; assay: MIC, broth microdilution, EFcm 800; details: Enterococcus faecium, 800, class symbols, read-out: MIC E FCM 800
Method: as §1

[12] = Table 2, in the presence of 0.002% Polysorbate 80, class symbols
[13] = Table 2, in the presence of 0.002% Polysorbate 80

Row | MIC [1, 12] [µg/mL] | MIC [2, 13] [µg/mL] | MIC [3, 13] [µg/mL] | MIC [4, 13] [µg/mL] | MIC [5, 12] [µg/mL] | MIC [6, 13] [µg/mL] | MIC [7, 13] [µg/mL] | MIC [8, 12] [µg/mL] | MIC [9, 13] [µg/mL] | MIC [10, 13] [µg/mL] | MIC [11, 13] [µg/mL] | MIC ([1]; Table 1, class symbols) [µg/mL] | MIC ([2]; Table 1) [µg/mL] | MIC ([3]; Table 1) [µg/mL] | MIC ([4]; Table 1) [µg/mL] | MIC ([5]; Table 1, class symbols) [µg/mL] | MIC ([6]; Table 1) [µg/mL] | MIC ([7]; Table 1) [µg/mL] | MIC ([8]; Table 1, class symbols) [µg/mL] | MIC ([9]; Table 1) [µg/mL] | SMILES | further results
1 | 0.01 to 0.5 | 1 to 2 | 0.01 to 0.5 | > 16 | 1 to 2 | 1 to 2 | 4 to 8 | 1 to 2 | 0.5 to 1 | 1 to 2 | 0.5 to 1 | – | – | – | – | – | – | – | – | – | CN[C@H](CC(C)C)C(=O)N[C@H]1C(=O)N[C@@H](CC(=O)NC(=O)c2ccc(OCCCN)c(OCCCN)c2)C(=O)N[C@H]2C(=O)N[C@H]3C(=O)N[C@H](C(=O)N[C@H](C(=O)NC4C5CC6CC(C5)CC4C6)c4cc(O)cc(O)c4-c4cc3ccc4O)[C@H](O)c3ccc(c(Cl)c3)Oc3cc2cc(c3O[C@@H]2O[C@H](CO)[C@@H](O)[C@H](O)[C@H]2O)Oc2ccc(cc2Cl)[C@H]1O (stereo partly drawn) [Compound 163] | –
2 | – | – | – | – | – | – | – | – | – | – | – | 0.01 to 0.5 (≈ 0.00585 to 0.292 µM) | 0.01 to 0.5 (≈ 0.00585 to 0.292 µM) | 0.01 to 0.5 (≈ 0.00585 to 0.292 µM) | 2 to 4 (≈ 1.17 to 2.34 µM) | 0.01 to 0.5 (≈ 0.00585 to 0.292 µM) | 0.01 to 0.5 (≈ 0.00585 to 0.292 µM) | 1 to 2 (≈ 0.585 to 1.17 µM) | 1 to 2 (≈ 0.585 to 1.17 µM) | 0.5 to 1 (≈ 0.292 to 0.585 µM) | CCOCCOCCOc1ccc(S(=O)(=O)NC(=O)C[C@@H]2NC(=O)[C@H](NC(=O)[C@@H](CC(C)C)NC)[C@H](O)c3ccc(c(Cl)c3)Oc3cc4cc(c3O[C@@H]3O[C@H](CN)[C@@H](O)[C@H](O)[C@H]3O)Oc3ccc(cc3Cl)[C@@H](O)[C@@H]3NC(=O)[C@H](NC(=O)[C@@H]4NC2=O)c2ccc(O)c(c2)-c2c(O)cc(O)cc2[C@@H](C(=O)NC2C4CC5CC(C4)CC2C5)NC3=O)cc1 (stereo partly drawn) [Compound 103] | MIC ([10]; Table 1): 0.5 to 1 µg/mL (≈ 0.292 to 0.585 µM); MIC ([11]; Table 1): 0.01 to 0.5 µg/mL (≈ 0.00585 to 0.292 µM)
3 | 0.01 to 0.5 | 0.01 to 0.5 | 0.01 to 0.5 | 4 to 8 | 0.01 to 0.5 | 0.01 to 0.5 | 0.5 to 1 | 2 to 4 | 0.01 to 0.5 | 0.01 to 0.5 | 0.01 to 0.5 | – | – | – | – | – | – | – | – | – | CN[C@H](CC(C)C)C(=O)N[C@H]1C(=O)N[C@@H](CC(=O)NC(=O)c2ccc(OC)cc2)C(=O)N[C@H]2C(=O)N[C@H]3C(=O)N[C@H](C(=O)N[C@H](C(=O)NC4C5CC6CC(C5)CC4C6)c4cc(O)cc(O)c4-c4cc3ccc4O)[C@H](O)c3ccc(c(Cl)c3)Oc3cc2cc(c3O[C@@H]2O[C@H](CO)[C@@H](O)[C@H](O)[C@H]2O[C@H]2C[C@](C)(N)[C@H](O)[C@H](C)O2)Oc2ccc(cc2Cl)[C@H]1O (stereo partly drawn) [Compound 62] | –
4 | – | – | – | – | – | – | – | – | – | – | – | 0.01 to 0.5 (≈ 0.00589 to 0.295 µM) | 0.01 to 0.5 (≈ 0.00589 to 0.295 µM) | 0.01 to 0.5 (≈ 0.00589 to 0.295 µM) | > 16 | 0.5 to 1 (≈ 0.295 to 0.589 µM) | 0.5 to 1 (≈ 0.295 to 0.589 µM) | > 16 | 2 to 4 (≈ 1.18 to 2.36 µM) | 0.01 to 0.5 (≈ 0.00589 to 0.295 µM) | CCCCOCC(=O)NC(=O)C[C@@H]1NC(=O)[C@H](NC(=O)[C@@H](CC(C)C)NC)[C@H](O)c2ccc(c(Cl)c2)Oc2cc3cc(c2O[C@@H]2O[C@H](CO)[C@@H](O)[C@H](O)[C@H]2O[C@H]2C[C@](C)(N)[C@H](O)[C@H](C)O2)Oc2ccc(cc2Cl)[C@@H](O)[C@@H]2NC(=O)[C@H](NC(=O)[C@@H]3NC1=O)c1ccc(O)c(c1)-c1c(O)cc(O)cc1[C@@H](C(=O)NC1C3CC4CC(C3)CC1C4)NC2=O (stereo partly drawn) [Compound 44] | MIC ([10]; Table 1): 0.5 to 1 µg/mL (≈ 0.295 to 0.589 µM); MIC ([11]; Table 1): 0.01 to 0.5 µg/mL (≈ 0.00589 to 0.295 µM)
5 | 0.01 to 0.5 | 1 to 2 | 0.01 to 0.5 | 4 to 8 | 0.01 to 0.5 | 0.01 to 0.5 | 1 to 2 | 1 to 2 | – | 0.01 to 0.5 | 0.01 to 0.5 | – | – | – | – | – | – | – | – | – | CNCCOc1ccc(C(=O)NC(=O)C[C@@H]2NC(=O)[C@H](NC(=O)[C@@H](CC(C)C)NC)[C@H](O)c3ccc(c(Cl)c3)Oc3cc4cc(c3O[C@@H]3O[C@H](CO)[C@@H](O)[C@H](O)[C@H]3O[C@H]3C[C@](C)(N)[C@H](O)[C@H](C)O3)Oc3ccc(cc3Cl)[C@@H](O)[C@@H]3NC(=O)[C@H](NC(=O)[C@@H]4NC2=O)c2ccc(O)c(c2)-c2c(O)cc(O)cc2[C@@H](C(=O)NC2C4CC5CC(C4)CC2C5)NC3=O)cc1 (stereo partly drawn) [Compound 67] | –
